Test results as given in patent US12590062B2, “PD-1/PD-L1 inhibitors” (Gilead Sciences, Inc., priority 2017, dated 2026).

Key:
[1] = target: T1, PD-L1 (Homo sapiens, UniProt Q9NZQ7); experiment: PD-L1/PD-L1 dimerization biochemical protein-protein interaction assay (ALPHA); assay type: binding; conditions: compound-induced PD-L1 dimerization, head prints '1 nM' (0.5 nM His-tagged PD-L1 and 0.5 nM FLAG-tagged PD-L1), read-out: AC50 PDL1 Dimer Alpha 1 nM
T1 construct: determine if they can specifically dimerize the extracellular domains of PD-L1
In short: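 ALPHA proximity assay of compound-induced dimerization of 0.5 nM His-tagged and 0.5 nM FLAG-tagged PD-L1 extracellular domains in Hepes pH 7.4 buffer, 2 h at 25 °C. Anti-His acceptor then anti-FLAG donor beads, 60 min each; AC50 from four-parameter fit.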

[2] = target: T2, PD-1/PD-L1 interaction (Homo sapiens, UniProt Q9NZQ7); experiment: PD-1/PD-L1 NFAT reporter co-culture assay; assay type: cell-based; conditions: Jurkat PD-1 NFAT-luciferase cells co-cultured with aAPC-PD-L1 CHO cells, 6 hrs at 37° C.; read-out: EC50 NFAT Luciferase
T2 construct: expressed in transfected cells; host or cells: CHO cells (aAPC-PD-L1) co-cultured with Jurkat cells overexpressing PD-1 and an NFAT-luciferase reporter
In short: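 CHO aAPC-PD-L1 seeded overnight; PD-1/NFAT-luc Jurkat + cpd in RPMI 1640, 2% FBS added at once; 6 h, 37 °C; ONE-Glo luminescence; EC50, 4-parameter fit.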

[3] = target: PD-1/PD-L1 (Homo sapiens, UniProt Q9NZQ7); experiment: PD-1/PD-L1 biochemical protein-protein interaction assay (ALPHA); assay type: binding; conditions: 0.3 nM His tagged PD-L1, 2.5 nM biotinylated Fc-PD-1, 60 minutes at 25° C., read-out: IC50 PD-L1-PD-1 Alpha IC50-mono PD-L1-fcP-D1
In short: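 Compounds are tested for blocking the PD-1/PD-L1 extracellular-domain interaction using an ALPHA bead assay, in which inhibition lowers the luminescent signal. Reactions run 60 min at 25° C with 0.3 nM His-PD-L1 and 2.5 nM biotinylated Fc-PD-1. IC50 values come from four-parameter fits.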

Chain of PD-1/PD-L1 (Q9NZQ7 19-238 limits assumed): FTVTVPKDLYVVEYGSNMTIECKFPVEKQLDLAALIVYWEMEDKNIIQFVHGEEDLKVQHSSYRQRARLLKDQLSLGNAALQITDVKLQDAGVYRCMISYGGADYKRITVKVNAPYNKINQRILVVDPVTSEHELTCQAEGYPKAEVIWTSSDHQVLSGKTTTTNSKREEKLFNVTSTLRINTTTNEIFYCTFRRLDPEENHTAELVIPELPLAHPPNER
T1 sequence (Q9NZQ7 19-238 limits assumed): as above
T1 sequence (Q9NZQ7 19-238 limits assumed): as above
T2 sequence (Q9NZQ7 19-290): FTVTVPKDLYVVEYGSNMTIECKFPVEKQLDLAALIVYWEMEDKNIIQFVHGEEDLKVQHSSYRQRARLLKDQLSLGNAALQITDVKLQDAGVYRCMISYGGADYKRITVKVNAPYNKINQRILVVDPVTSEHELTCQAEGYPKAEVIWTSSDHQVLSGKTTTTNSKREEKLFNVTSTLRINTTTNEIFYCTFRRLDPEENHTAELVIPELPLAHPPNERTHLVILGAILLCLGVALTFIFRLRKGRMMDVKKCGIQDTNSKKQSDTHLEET

Structure (SMILES)	AC50 [1] [nM]	EC50 [2] [nM]	IC50 [3] [nM]
COc1nc(O[C@H]2CCc3c(-c4cccc(-c5cnc6c(CN7CC8(CNC(=O)C8)C7)cn(C)c6n5)c4Cl)cccc32)c(Cl)cc1CN1CC(C(=O)O)C1 [Example 527]	69.9	46	0.064
COc1nc(O[C@H]2CCc3c(-c4cccc(-c5cnc6c(CNC[C@@H]7CCC(=O)N7)cn(C)c6n5)c4Cl)cccc32)c(Cl)cc1CN1CC[C@@H](C(=O)O)C1 [Example 528]	63.3	89	0.068
COc1nc(O[C@H]2CCc3c(-c4cccc(-c5cnc6c(CNC[C@@H]7CCC(=O)N7)cn(C)c6n5)c4Cl)cccc32)c(Cl)cc1CN1CC(C(=O)O)C1 [Example 529]	56.2	165	0.064
N#Cc1cncc(COc2nc(OCc3cccc(-c4cccc(-c5ccc(CNC[C@@H]6CCC(=O)N6)cc5)c4Cl)c3Cl)c(Br)cc2CNC[C@@H]2CCC(=O)N2)c1 [Example 540]	126	103	0.593
COc1cc(-c2cccc(-c3cccc(COc4nc(OCc5cncc(C#N)c5)c(CNC[C@@H]5CCC(=O)N5)cc4Br)c3Cl)c2Cl)ccc1CNC[C@@H]1CCC(=O)N1 [Example 541]	70.4	93	0.641
COc1cc(-c2cccc(-c3cccc(COc4nc(OC)c(CNC[C@@H]5CCC(=O)N5)cc4Br)c3Cl)c2Cl)ccc1CNC[C@@H]1CCC(=O)N1 [Example 542]	136	197	1.24
COc1nc(-c2cccc(-c3cccc(COc4nc(OCc5cncc(C#N)c5)c(CN5CCCC[C@H]5C(=O)O)cc4Br)c3Cl)c2Cl)ccc1C1=NCCN1 [Example 543]	49.7	187	0.07
CS(=O)(=O)c1cncc(COc2nc(OCc3cccc(-c4cccc(-c5ccc6c(c5)C[C@@H](N)C6)c4Cl)c3Cl)c(Br)cc2CN2CCCC[C@H]2C(=O)O)c1 [Example 544]	17.3	109	0.09
CC(C)(NCc1cc(Br)c(OCc2cccc(-c3cccc(-c4ccc5c(c4)C[C@@H](N)C5)c3Cl)c2Cl)nc1OCc1cncc(S(C)(=O)=O)c1)C(=O)O [Example 545]	24.4	145	0.089
CS(=O)(=O)c1cncc(COc2nc(OCc3cccc(-c4cccc(-c5ccc6c(c5)C[C@@H](N)C6)c4Cl)c3Cl)c(Br)cc2CNC[C@@H](O)CC(=O)O)c1 [Example 546]	39.2	109	0.515
C[C@](CO)(NCc1cc(Br)c(OCc2cccc(-c3cccc(-c4ccc5c(c4)C[C@@H](N)C5)c3Cl)c2Cl)nc1OCc1cncc(S(C)(=O)=O)c1)C(=O)O [Example 547]	20.1	51	0.363
COc1nc(OCc2cccc(-c3cccc(-c4ccc5c(c4)C[C@@H](N)C5)c3Cl)c2Cl)c(Br)cc1CNC[C@H](O)CC(=O)O [Example 548]	74.6	197	0.676
COc1nc(OCc2cccc(-c3cccc(-c4ccc5c(c4)C[C@@H](N)C5)c3Cl)c2Cl)c(Br)cc1CN[C@](C)(CO)C(=O)O [Example 549]	54.6	177	0.355
C[C@@](CO)(NCc1cc(Br)c(OCc2cccc(-c3cccc(-c4ccc5c(c4)C[C@@H](N)C5)c3Cl)c2Cl)nc1OCc1cncc(S(C)(=O)=O)c1)C(=O)O [Example 550]	47.7	163	0.134
CC(C)(NCc1cc(Br)c(OCc2cccc(-c3cccc(-c4ccc5c(c4)C[C@@H](N)C5)c3Cl)c2Cl)nc1OCc1cncc(C#N)c1)C(=O)O [Example 551]	12.4	100	0.064
N#Cc1cncc(COc2nc(OCc3cccc(-c4cccc(-c5ccc6c(c5)C[C@@H](N)C6)c4Cl)c3Cl)c(Br)cc2CNC[C@@H](O)CC(=O)O)c1 [Example 552]	74.7	152	0.716

Structure (SMILES)	AC50 [1] [nM]	EC50 [2] [nM]	IC50 [3] [nM]
C[C@](CO)(NCc1cc(Br)c(OCc2cccc(-c3cccc(-c4ccc5c(c4)C[C@@H](N)C5)c3Cl)c2Cl)nc1OCc1cncc(C#N)c1)C(=O)O [Example 553]	17.7	70	0.101
C[C@@](CO)(NCc1cc(Br)c(OCc2cccc(-c3cccc(-c4ccc5c(c4)C[C@@H](N)C5)c3Cl)c2Cl)nc1OCc1cncc(C#N)c1)C(=O)O [Example 554]	39.5	148	0.15
COc1nc(-c2cccc(-c3cccc(COc4nc(OCc5cncc(C#N)c5)c(CNCCO)cc4Br)c3Cl)c2Cl)ccc1C1=NCCN1 [Example 555]	23.1	84	0.396
COc1nc(-c2cccc(-c3cccc(COc4nc(OCc5cncc(C#N)c5)c(CNC[C@@H]5CCC(=O)N5)cc4Br)c3Cl)c2Cl)ccc1C1=NCCN1 [Example 556]	37.7	86	0.194
Cc1c(COc2cc(OCc3cncc(C#N)c3)c(CN[C@@](C)(CO)C(=O)O)cc2Cl)cccc1-c1cccc(Nc2nccc3cc(CNCCO)cnc23)c1C [Example 557]	137	135	0.201
COc1nc(-c2cccc(-c3cccc(COc4nc(OCc5cncc(C#N)c5)c(CNC[C@@H](O)CC(=O)O)cc4Br)c3Cl)c2Cl)ccc1C1=NCCN1 [Example 558]	33.6	51	0.065
COc1nc(-c2cccc(-c3cccc(COc4nc(OCc5cncc(C#N)c5)c(CN[C@@](C)(CO)C(=O)O)cc4Br)c3Cl)c2Cl)ccc1C1=NCCN1 [Example 559]	18.7	53	0.064
N#Cc1cncc(COc2nc(OCc3cccc(-c4cccc(-c5ccc(OCCNCCO)cc5)c4Cl)c3Cl)c(Cl)cc2CN2C[C@@H](O)C[C@H]2C(=O)O)c1 [Example 560]	77.8	163	0.135
N#Cc1cncc(COc2nc(OCc3cccc(-c4cccc(-c5ccc(OCCNCCO)cc5)c4Cl)c3Cl)c(Cl)cc2CNC[C@@H](O)CC(=O)O)c1 [Example 561]	193	146	0.531
COc1nc(OCc2cccc(-c3cccc(COc4nc(OC)c(CNC[C@@H](O)CC(=O)O)cc4Br)c3C#N)c2Cl)c(Br)cc1CNC[C@@H](O)CC(=O)O [Example 562]	126	162	0.102
N#Cc1cc(C#N)cc(COc2nc(OCc3cccc(-c4cccc(-c5ccc(OCCN6CC7(CCC(=O)N7)C6)cc5)c4Cl)c3Cl)c(Cl)cc2CNC[C@@H](O)CC(=O)O)c1 [Example 565]	73.4	112	0.259
C[C@@](CO)(NCc1cc(Cl)c(OCc2cccc(-c3cccc(-c4ccc(OCCN5CC6(CCC(=O)N6)C5)cc4)c3Cl)c2Cl)nc1OCc1cc(C#N)cc(C#N)c1)C(=O)O [Example 566]	39.4	86	0.11
N#Cc1cc(C#N)cc(COc2nc(OCc3cccc(-c4cccc(-c5ccc(CN6CC7(CCC(=O)N7)C6)cc5)c4Cl)c3Cl)c(Cl)cc2CNC[C@@H](O)CC(=O)O)c1 [Example 567]	68.7	85	0.327
COc1nc(-c2cccc(-c3cccc(COc4nc(OCc5cc(C#N)cc(C#N)c5)c(CNC[C@@H](O)CC(=O)O)cc4Cl)c3Cl)c2Cl)ccc1CNC[C@@H]1CCC(=O)N1 [Example 568]	44.3	65	0.064
Cc1c(COc2cc(OCc3cncc(C#N)c3)c(CNC[C@@H](O)CC(=O)O)cc2Cl)cccc1-c1cccc(-c2ccc3c(CNC[C@@H](O)CC(=O)O)ccnc3c2)c1C [Example 569]	128	74	0.085
